The data set has as its system tobacco budworm (Heliothis virescens [Fabricius]). Kind of data set: surface-treated diet test against tobacco budworm. Conditions: 0.25 millimoles of candidate insecticide on the surface of the diet, second instar larvae, five-day exposure; for Percent Mortality: compared to the total number of insects infested; for Percent Growth Inhibition: inhibition of insect weight relative to untreated controls. The format is in vivo. The method, then: Candidate insecticides were evaluated for activity against the tobacco budworm (Heliothis virescens [Fabricius]) in a surface-treated diet test.
In this test one mL of molten (65-70° C.) wheat germ-based artificial diet was pipetted into each well of a four by six (24 well) multi-well plate (ID# 430345-15.5 mm dia.×17.6 mm deep; Corning Costar Corp., One Alewife Center, Cambridge, Mass. 02140). The diet was allowed to cool to ambient temperature before treatment with candidate insecticide.
For a determination of insecticidal activity, solutions of the candidate insecticides were prepared for testing using a Packard 204DT Multiprobe® Robotic System (Packard Instrument Company, 800 Research Parkway, Meriden, Conn. 06450), in which the robot first diluted a standard 50 millimolar DMSO solution of candidate insecticide with a 1:1 water/acetone solution (V/V) in a ratio of 1:7 stock solution to water/acetone. The robot subsequently pipetted 40 microliters of the so-prepared solution onto the surface of the diet in each of three wells in the 24 multi-well plate. The process was repeated with solutions of seven other candidate insecticides. Once treated, the contents of the multi-well plate were allowed to dry, leaving 0.25 millimoles of candidate insecticide on the surface of the diet, or a concentration of 0.25 millimolar. Appropriate untreated controls containing only DMSO on the diet surface were also included in this test.
For evaluations of the insecticidal activity of a candidate insecticide at varying rates of application, the test was established as described above using sub-multiples of the standard 50 millimolar DMSO solution of candidate insecticide. For example, the standard 50 millimolar solution was diluted by the robot with DMSO to give 5, 0.5, 0.05, 0.005, 0.0005 millimolar, or more dilute solutions of the candidate insecticide. In these evaluations there were six replicates of each rate of application placed on the surface of the diet in the 24 multi-well plate, for a total of four rates of application of candidate insecticide in each plate.
In each well of the test plate was placed one second instar tobacco budworm larvea, each weighing approximately five milligrams. After the larvae were placed in each well, the plate was sealed with clear polyfilm adhesive tape. The tape over each well was perforated to ensure an adequate air supply. The plates were then held in a growth chamber at 25° C. and 60% relative humidity for five days (light 14 hours/day).
After the five-day exposure period insecticidal activity for each rate of application of candidate insecticide was assessed as percent inhibition of insect weight relative to the weight of insects from untreated controls, and percent mortality when compared to the total number of insects infested.
The test compounds of formula I are identified by numbers that correspond to those in Table 1.

As for `O=C(c1ccc(C(F)(F)F)cc1)C1CCNCC1` [Compound 3, 4-piperidyl 4-(trfluoromethyl)phenyl ketone], the “Percent Mortality” value came out at 100% and the “Percent Growth Inhibition” value came to 100%.

On to `O=C(c1ccc(OC(F)(F)F)cc1)C1CCN(Cc2ccc(F)cc2)CC1` [Compound 27], for which the “Percent Mortality” value came out at 0% and the “Percent Growth Inhibition” value was determined as 97%.

`CCCOc1ccc(CN2CCC(C(=O)c3ccc(OC(F)(F)F)cc3)CC2)cc1` [Compound 43]: the “Percent Mortality” value worked out at 100% and the “Percent Growth Inhibition” value amounted to 100%.

Regarding `O=C(c1ccc(OC(F)(F)F)cc1)C1CCN(Cc2ccc(-c3ccccn3)cc2)CC1` [Compound 62], the “Percent Mortality” value was 100% and the “Percent Growth Inhibition” value is 95%.

Turning to `Cn1nnc(-c2ccc(CN3CCC(C(=O)c4ccc(OC(F)(F)F)cc4)CC3)cc2)n1` [Compound 67], the “Percent Mortality” value is listed as 100% and the “Percent Growth Inhibition” value is recorded as 95%.

As for `CCn1nnc(-c2ccc(CN3CCC(C(=O)c4ccc(OC(F)(F)F)cc4)CC3)cc2)n1` [Compound 72, 1-{[4-(2-ethyl(1,2,3,4-tetraazol-5-yl))phenyl]methyl}(4-piperidyl)4-(trifluoromethoxy)phenyl ketone], the “Percent Growth Inhibition” value came to 95%.

Consider `CC(C)NN=C(c1ccc(C(F)(F)F)cc1)C1CCN(Cc2ccc(-c3nnn(C)n3)cc2)CC1` [Compound 91], for which the “Percent Mortality” value came out at 0% and the “Percent Growth Inhibition” value is on record as 79%.

For the compound `CCn1nnc(-c2ccc(CN3CCC(C(=NNc4ccccn4)c4ccc(OC(F)(F)F)cc4)CC3)cc2)n1` [Compound 92], the “Percent Mortality” value turned out to be 0% and the “Percent Growth Inhibition” value stood at 45%.

Consider `CCn1nnc(-c2ccc(CN3CCC(C(=Cc4ccc(OC(F)(F)F)cc4)c4ccc(Cl)cc4)CC3)cc2)n1` [Compound 94], for which the “Percent Mortality” value stood at 100% and the “Percent Growth Inhibition” value amounted to 100%.

For `COc1ccc(CN2CCC(C(=NNc3ccc(OC(F)(F)F)cc3)c3ccc(OC(F)(F)F)cc3)CC2)cc1` [Compound 96], the “Percent Mortality” value was 100% and the “Percent Growth Inhibition” value was found to be 96%.

For the compound `CCCOc1ccc(CN2CCC(C(=NNc3ccc(OC(F)(F)F)cc3)c3ccc(OC(F)(F)F)cc3)CC2)cc1` [Compound 97], the “Percent Mortality” value is 100% and the “Percent Growth Inhibition” value was found to be 100%.

As for `CCn1nnc(-c2ccc(CN3CCC(C(=NNc4ccc(C)cc4)c4ccc(OC(F)(F)F)cc4)CC3)cc2)n1` [Compound 113], the “Percent Mortality” value came to 100% and the “Percent Growth Inhibition” value stood at 100%.

As for `CCn1nnc(-c2ccc(CN3CCC(C(=NNc4ccc(C(C)C)cc4)c4ccc(OC(F)(F)F)cc4)CC3)cc2)n1` [Compound 114], the “Percent Mortality” value turned out to be 100% and the “Percent Growth Inhibition” value was determined as 100%.

In the case of `CCn1nnc(-c2ccc(CN3CCC(C(=NNc4ccc(OC)cc4)c4ccc(OC(F)(F)F)cc4)CC3)cc2)n1` [Compound 116], the “Percent Mortality” value stood at 100% and the “Percent Growth Inhibition” value worked out at 100%.

As to `CCn1nnc(-c2ccc(CN3CCC(C(=NNc4ccc(C(F)(F)F)cc4)c4ccc(C(F)(F)F)cc4)CC3)cc2)n1` [Compound 118], the “Percent Mortality” value stood at 100% and the “Percent Growth Inhibition” value stood at 96%.

Regarding `CCn1nnc(-c2ccc(CN3CCC(C(=NNc4ccc(OC(F)(F)F)cc4)c4ccc(C(F)(F)F)cc4)CC3)cc2)n1` [Compound 119], the “Percent Mortality” value stood at 100% and the “Percent Growth Inhibition” value was determined as 100%.

Take `CCn1nnc(-c2ccc(CN3CCC(C(=NNc4ccccc4C(F)(F)F)c4ccc(OC(F)(F)F)cc4)CC3)cc2)n1` [Compound 120]: the “Percent Mortality” value is listed as 0% and the “Percent Growth Inhibition” value is listed as 40%.

With `CCn1nnc(-c2ccc(CN3CCC(C(=NNc4cccc(C(F)(F)F)c4)c4ccc(OC(F)(F)F)cc4)CC3)cc2)n1` [Compound 121], the “Percent Mortality” value was 100% and the “Percent Growth Inhibition” value is 100%.

Consider `CCn1nnc(-c2ccc(CN3CCC(C(=NNc4ccc(C(F)(F)F)cc4)c4ccc(OC(F)(F)F)cc4)CC3)cc2)n1` [Compound 122], for which the “Percent Mortality” value turned out to be 100% and the “Percent Growth Inhibition” value was 96%.

For `Cn1nnc(-c2ccc(CN3CCC(C(=NNc4ccc(OC(F)(F)F)cc4)c4ccc(OC(F)(F)F)cc4)CC3)cc2)n1` [Compound 123], the “Percent Mortality” value worked out at 100% and the “Percent Growth Inhibition” value is reported as 100%.

With `CCn1nnc(-c2ccc(CN3CCC(C(=NNc4ccc(OC(F)(F)F)cc4)c4ccc(OC(F)(F)F)cc4)CC3)cc2)n1` [Compound 124], the “Percent Mortality” value is 100% and the “Percent Growth Inhibition” value is 100%.

For `CCn1nnc(-c2ccc(CN3CCC(C(=NNc4ccc(S(N)(=O)=O)cc4)c4ccc(OC(F)(F)F)cc4)CC3)cc2)n1` [Compound 125], the “Percent Mortality” value worked out at 100% and the “Percent Growth Inhibition” value amounted to 100%.

Consider `CCn1nnc(-c2ccc(CN3CCC(C(=NNc4ccc([N+](=O)[O-])cc4)c4ccc(OC(F)(F)F)cc4)CC3)cc2)n1` [Compound 126], for which the “Percent Mortality” value was 100% and the “Percent Growth Inhibition” value is given as 100%.

`CCn1nnc(-c2ccc(CN3CCC(C(=NNCc4ccc(C(F)(F)F)cc4)c4ccc(OC(F)(F)F)cc4)CC3)cc2)n1` [Compound 127]: the “Percent Mortality” value worked out at 100% and the “Percent Growth Inhibition” value came to 100%.

`CCn1nnc(-c2ccc(CN3CCC(C(=NNCc4ccc(OC(F)(F)F)cc4)c4ccc(OC(F)(F)F)cc4)CC3)cc2)n1` [Compound 128]: the “Percent Mortality” value was determined as 0% and the “Percent Growth Inhibition” value stood at 96%.

Consider `CCn1nnc(-c2ccc(CN3CCC(C(=NNS(=O)(=O)c4ccc(C(F)(F)F)cc4)c4ccc(OC(F)(F)F)cc4)CC3)cc2)n1` [Compound 129], for which the “Percent Mortality” value is listed as 100% and the “Percent Growth Inhibition” value was 95%.

Regarding `CCn1nnc(-c2ccc(CN3CCC(C(=NNS(=O)(=O)c4ccc(OC(F)(F)F)cc4)c4ccc(OC(F)(F)F)cc4)CC3)cc2)n1` [Compound 130], the “Percent Mortality” value is listed as 100% and the “Percent Growth Inhibition” value stood at 100%.

`O=C(NN=C(c1ccc(OC(F)(F)F)cc1)C1CCN(Cc2ccc(Oc3ccccn3)cc2)CC1)c1ccc(Cl)cc1` [Compound 131]: the “Percent Mortality” value came to 50% and the “Percent Growth Inhibition” value turned out to be 100%.

With `O=C(NN=C(c1ccc(OC(F)(F)F)cc1)C1CCN(Cc2ccc(Oc3ccccn3)cc2)CC1)c1ccc(C(F)(F)F)cc1` [Compound 132], the “Percent Mortality” value worked out at 83% and the “Percent Growth Inhibition” value is listed as 100%.

Turning to `Cn1nnc(-c2ccc(CN3CCC(C(=NNC(=O)c4ccccc4Cl)c4ccc(OC(F)(F)F)cc4)CC3)cc2)n1` [Compound 136], the “Percent Mortality” value is on record as 76% and the “Percent Growth Inhibition” value is reported as 0%.

As to `Cn1nnc(-c2ccc(CN3CCC(C(=NNC(=O)c4cccc(Cl)c4)c4ccc(OC(F)(F)F)cc4)CC3)cc2)n1` [Compound 137], the “Percent Mortality” value is listed as 100% and the “Percent Growth Inhibition” value amounted to 100%.

As for `Cn1nnc(-c2ccc(CN3CCC(C(=NNC(=O)c4ccc(Cl)cc4)c4ccc(Cl)cc4)CC3)cc2)n1` [Compound 138], the “Percent Mortality” value is listed as 0% and the “Percent Growth Inhibition” value amounted to 14%.

For `Cn1nnc(-c2ccc(CN3CCC(C(=NNC(=O)c4ccc(Cl)cc4)c4ccc(OC(F)(F)F)cc4)CC3)cc2)n1` [Compound 139], the “Percent Mortality” value came out at 100% and the “Percent Growth Inhibition” value was 100%.

Turning to `Cn1nnc(-c2ccc(CN3CCC(C(=NNC(=O)c4ccc(Br)cc4)c4ccc(OC(F)(F)F)cc4)CC3)cc2)n1` [Compound 140], the “Percent Mortality” value was 100% and the “Percent Growth Inhibition” value was 100%.

As to `Cn1nnc(-c2ccc(CN3CCC(C(=NNC(=O)c4cccc(F)c4)c4ccc(OC(F)(F)F)cc4)CC3)cc2)n1` [Compound 142], the “Percent Mortality” value stood at 67% and the “Percent Growth Inhibition” value is reported as 100%.

Take `Cn1nnc(-c2ccc(CN3CCC(C(=NNC(=O)c4ccc(F)cc4)c4ccc(OC(F)(F)F)cc4)CC3)cc2)n1` [Compound 143]: the “Percent Mortality” value turned out to be 17% and the “Percent Growth Inhibition” value was 87%.

`Cn1nnc(-c2ccc(CN3CCC(C(=NNC(=O)c4ccc(I)cc4)c4ccc(OC(F)(F)F)cc4)CC3)cc2)n1` [Compound 144]: the “Percent Mortality” value is 100% and the “Percent Growth Inhibition” value is listed as 100%.

These data come from patent US7365082B2, “N-(substituted arylmethyl)-4-(disubstituted methyl)piperidines and piperazines” (Bayer CropScience AG, priority 2002, dated 2008).
